From US20230265151A1, “GIP/GLP1 CO-AGONIST COMPOUNDS” (priority 2020, published 2023)
Like-named read-outs stand apart in the source and are kept apart here.

Assays:
Format in all cases: cell-based
hGCGR = target: T1, hGCGR (Homo sapiens, UniProt P47871); test: Functional cAMP formation (HTRF) in HEK-293 clonal cells expressing hGCGR, 0.1% bovine casein, without or with 1.0% human serum albumin
T1 construct: expressed in transfected cells
Outline: (§1)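 Readings of the HTRF 665/620 nm ratio, which falls as cAMP rises, were converted to nM cAMP using a standard curve after 30 min peptide exposure at 37° C.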

hGLP-1R = hGLP-1R (Homo sapiens, UniProt P43220); test: Functional cAMP formation (HTRF) in HEK-293 clonal cells expressing hGLP-1R, 0.1% bovine casein, without or with 1.0% human serum albumin; parameters: expressed in transfected cells; conditions: for Emax: percent of maximal response to GLP-1(7-36)NH2; for EC50: 37° C.
Outline: as §1

hGIPR = target: T2, hGIPR (Homo sapiens, UniProt P48546); test: Functional cAMP formation (HTRF) in HEK-293 clonal cells expressing hGIPR, 0.1% bovine casein, without or with 1.0% human serum albumin; conditions: for EC50: geometric mean
T2 construct: expressed in transfected cells
T2 sequence (P48546 22-466): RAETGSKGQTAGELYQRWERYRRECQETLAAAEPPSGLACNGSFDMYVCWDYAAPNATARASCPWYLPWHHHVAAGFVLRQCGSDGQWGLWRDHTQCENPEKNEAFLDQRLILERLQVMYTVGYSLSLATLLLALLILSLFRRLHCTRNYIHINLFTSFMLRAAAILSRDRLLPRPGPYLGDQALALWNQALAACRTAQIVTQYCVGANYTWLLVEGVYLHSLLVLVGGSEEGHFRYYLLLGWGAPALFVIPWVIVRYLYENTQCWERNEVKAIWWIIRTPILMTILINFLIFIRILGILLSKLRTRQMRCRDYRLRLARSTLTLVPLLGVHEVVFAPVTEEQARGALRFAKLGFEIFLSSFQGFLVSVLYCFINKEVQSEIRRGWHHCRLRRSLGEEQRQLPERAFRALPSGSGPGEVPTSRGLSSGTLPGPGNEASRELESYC
Outline: as §1

[1] = hGCGR EC50, nM (SEM, n), 0.1% bovine casein and 1.0% human serum albumin, 37° C., geometric mean
[2] = hGCGR EC50, nM (SEM, n), cAMP, incubated at 37° C., 0.1% bovine casein (no human serum albumin), geometric mean
[3] = hGLP-1R EC50, nM (SEM, n), 0.1% bovine casein and 1.0% human serum albumin, geometric mean
[4] = HEK293, read-out: hGIPR Emax, % ± SEM, 0.1% bovine casein and 1.0% human serum albumin, 37° C., percent of maximal response to GIP(1-42)NH2
[5] = HEK293, read-out: hGIPR Emax, % ± SEM, percent of maximal response to GIP(1-42)NH2, 37° C., 0.1% bovine casein, arithmetic mean
[6] = hGIPR EC50, nM (SEM, n), 0.1% bovine casein and 1.0% human serum albumin, 37° C.
[7] = hGIPR EC50, nM (SEM, n), cAMP, incubated at 37° C., 0.1% bovine casein (no human serum albumin)

T1 sequence (P47871 26-477): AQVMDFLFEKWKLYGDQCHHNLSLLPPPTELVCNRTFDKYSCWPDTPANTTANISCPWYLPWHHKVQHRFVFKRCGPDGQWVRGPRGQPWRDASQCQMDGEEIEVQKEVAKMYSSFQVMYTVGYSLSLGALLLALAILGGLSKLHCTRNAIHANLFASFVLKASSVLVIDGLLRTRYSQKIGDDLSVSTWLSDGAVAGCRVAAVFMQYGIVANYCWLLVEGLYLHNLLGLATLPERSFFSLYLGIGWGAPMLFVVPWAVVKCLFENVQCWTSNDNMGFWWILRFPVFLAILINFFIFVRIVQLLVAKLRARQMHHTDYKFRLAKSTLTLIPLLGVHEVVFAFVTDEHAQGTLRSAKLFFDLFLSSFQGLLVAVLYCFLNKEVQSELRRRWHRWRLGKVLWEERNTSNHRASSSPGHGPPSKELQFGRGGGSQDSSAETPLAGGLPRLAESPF
Chain of hGLP-1R (P43220 24-463): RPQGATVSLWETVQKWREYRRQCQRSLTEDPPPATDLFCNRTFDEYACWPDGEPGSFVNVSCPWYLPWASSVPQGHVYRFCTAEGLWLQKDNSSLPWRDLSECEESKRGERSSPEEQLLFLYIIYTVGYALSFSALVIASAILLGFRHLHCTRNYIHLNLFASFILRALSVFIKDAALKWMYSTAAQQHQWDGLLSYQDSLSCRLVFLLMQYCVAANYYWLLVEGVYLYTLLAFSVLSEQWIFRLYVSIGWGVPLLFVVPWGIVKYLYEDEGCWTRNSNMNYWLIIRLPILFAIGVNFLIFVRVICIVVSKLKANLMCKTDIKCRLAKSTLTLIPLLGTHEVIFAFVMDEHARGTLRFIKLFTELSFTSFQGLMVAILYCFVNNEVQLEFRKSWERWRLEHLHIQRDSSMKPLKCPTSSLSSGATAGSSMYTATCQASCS

For `CC[C@H](C)[C@H](NC(=O)[C@H](CC(C)C)NC(=O)[C@](C)(Cc1ccc(O)cc1)NC(=O)[C@@H](CCC(=O)O)NC(=O)[C@@H](NC(=O)[C@H](Cc1ccccc1)NC(=O)[C@H](CCCN)NC(=O)C(C)(C)NC(=O)[C@H](CCC(N)=O)NC(=O)[C@H](C)NC(=O)[C@H](CCCCNC(=O)COCCOCCNC(=O)COCCOCCNC(=O)CC[C@H](NC(=O)CCCCCCCCCOc1ccc(C(=O)O)cc1)C(=O)O)NC(=O)[C@H](CCCN)NC(=O)[C@H](CC(=O)O)NC(=O)[C@H](CC(C)C)NC(=O)[C@](C)(CC(C)C)NC(=O)[C@@H](NC(=O)C(C)(C)NC(=O)[C@@H](NC(=O)[C@H](CC(=O)O)NC(=O)[C@H](CO)NC(=O)[C@@H](NC(=O)[C@](C)(Cc1ccccc1F)NC(=O)[C@@H](NC(=O)CNC(=O)[C@H](CCC(=O)O)NC(=O)C(C)(C)NC(=O)[C@@H](N)Cc1ccc(O)cc1)[C@@H](C)O)[C@@H](C)O)C(C)C)[C@@H](C)CC)[C@@H](C)CC)C(=O)N[C@@H](CCCCNC(=O)COCCOCCNC(=O)COCCOCCNC(=O)CC[C@H](NC(=O)CCCCCCCCCOc1ccc(C(=O)O)cc1)C(=O)O)C(=O)NCC(=O)NCC(=O)N1CCC[C@H]1C(=O)N[C@@H](CO)C(=O)N[C@@H](CO)C(=O)NCC(=O)N[C@@H](C)C(=O)N1CCC[C@H]1C(=O)N1CCC[C@H]1C(=O)N1CCC[C@H]1C(=O)N[C@@H](CO)C(N)=O` [Example 353], the EC50 (hGCGR; hGCGR EC50, nM (SEM, n), cAMP, 37° C., 0.1% bovine casein (no human serum albumin), geometric mean) was > 9950 nM, the EC50 (hGCGR; hGCGR EC50, nM (SEM, n), cAMP, 37° C., 0.1% bovine casein and 1.0% human serum albumin, geometric mean (SEM, n)) was > 9950 nM and the Emax (hGLP-1R; HEK293, read-out: hGLP-1R Emax, % ± SEM, cAMP, 37° C., 0.1% bovine casein and 1.0% human serum albumin) was 92.5%. For the same molecule, the Emax (hGLP-1R; HEK293, read-out: hGLP-1R Emax, % ± SEM, cAMP, 37° C., 0.1% bovine casein, arithmetic mean) was 98%, the EC50 (hGLP-1R; hGLP-1R EC50, nM (SEM, n), cAMP, 0.1% bovine casein (no human serum albumin), geometric mean) was 0.203 nM and the Emax (hGIPR; HEK293, read-out: hGIPR Emax, % ± SEM, cAMP, 37° C., 0.1% bovine casein and 1.0% human serum albumin, percent of maximal response to GIP(1-42)NH2) was 84.8%. It also gave an Emax (hGIPR; HEK293, read-out: hGIPR Emax, % ± SEM, cAMP, 37° C., 0.1% bovine casein, percent of maximal response to GIP(1-42)NH2, arithmetic mean) of 98.2% and an EC50 (hGIPR; hGIPR EC50, nM (SEM, n), cAMP, 37° C., 0.1% bovine casein (no human serum albumin)) of 0.0249 nM.

For `CC[C@H](C)[C@H](NC(=O)[C@H](CC(C)C)NC(=O)[C@](C)(Cc1ccc(O)cc1)NC(=O)[C@@H](CCC(=O)O)NC(=O)[C@@H](NC(=O)[C@H](Cc1ccccc1)NC(=O)[C@H](CCCCNC(=O)COCCOCCNC(=O)CC[C@H](NC(=O)CCCCCCCCCCCCC(=O)O)C(=O)O)NC(=O)C(C)(C)NC(=O)[C@H](CCC(N)=O)NC(=O)[C@H](C)NC(=O)[C@H](CCCCNC(=O)COCCOCCNC(=O)CC[C@H](NC(=O)CCCCCCCCCCCCC(=O)O)C(=O)O)NC(=O)[C@H](CCCN)NC(=O)[C@H](CC(=O)O)NC(=O)[C@H](CC(C)C)NC(=O)[C@](C)(CC(C)C)NC(=O)[C@@H](NC(=O)C(C)(C)NC(=O)[C@@H](NC(=O)[C@H](CC(=O)O)NC(=O)[C@H](CO)NC(=O)[C@@H](NC(=O)[C@](C)(Cc1ccccc1F)NC(=O)[C@@H](NC(=O)CNC(=O)[C@H](CCC(=O)O)NC(=O)C(C)(C)NC(=O)[C@@H](N)Cc1ccc(O)cc1)[C@@H](C)O)[C@@H](C)O)C(C)C)[C@@H](C)CC)[C@@H](C)CC)C(=O)N[C@@H](CCC(=O)O)C(=O)NCC(=O)NCC(=O)N1CCC[C@H]1C(=O)N[C@@H](CO)C(=O)N[C@@H](CO)C(=O)NCC(=O)N[C@@H](C)C(=O)N1CCC[C@H]1C(=O)N1CCC[C@H]1C(=O)N1CCC[C@H]1C(=O)N[C@@H](CO)C(N)=O` [Example 398], the EC50 (hGCGR; cAMP, 37° C., 0.1% bovine casein (no human serum albumin), geometric mean, read-out: hGCGR EC50, nM (SEM, n)) was > 9950 nM, the EC50 (hGCGR; cAMP, 37° C., 0.1% bovine casein and 1.0% human serum albumin, geometric mean (SEM, n), read-out: hGCGR EC50, nM (SEM, n)) was > 9950 nM and the EC50 (hGLP-1R; cAMP, 0.1% bovine casein (no human serum albumin), geometric mean, read-out: hGLP-1R EC50, nM (SEM, n)) was 0.215 nM. It also gave an EC50 (hGLP-1R; cAMP, 0.1% bovine casein and 1.0% human serum albumin, geometric mean (SEM, n), read-out: hGLP-1R EC50, nM (SEM, n)) of 41.3 nM, an Emax (hGIPR; HEK293, cAMP, 37° C., 0.1% bovine casein and 1.0% human serum albumin, percent of maximal response to GIP(1-42)NH2, read-out: hGIPR Emax, % ± SEM) of 91.9% and an Emax (hGIPR; HEK293, cAMP, 37° C., 0.1% bovine casein, percent of maximal response to GIP(1-42)NH2, arithmetic mean, read-out: hGIPR Emax, % ± SEM) of 97.4%. It also gave an EC50 (hGIPR; cAMP, 37° C., 0.1% bovine casein (no human serum albumin), read-out: hGIPR EC50, nM (SEM, n)) of 0.0166 nM.

In the case of `CC[C@H](C)[C@H](NC(=O)[C@H](CCCN)NC(=O)[C@H](CC(=O)O)NC(=O)[C@H](CC(C)C)NC(=O)[C@](C)(CC(C)C)NC(=O)[C@@H](NC(=O)[C@H](CO)NC(=O)[C@H](Cc1ccncc1)NC(=O)[C@H](CC(=O)O)NC(=O)[C@H](CO)NC(=O)[C@@H](NC(=O)[C@](C)(Cc1ccccc1F)NC(=O)[C@@H](NC(=O)CNC(=O)[C@H](CCC(=O)O)NC(=O)C(C)(C)NC(=O)[C@@H](N)Cc1ccc(O)cc1)[C@@H](C)O)[C@@H](C)O)[C@@H](C)CC)C(=O)N[C@@H](C)C(=O)N[C@@H](CCC(N)=O)C(=O)NC(C)(C)C(=O)N[C@@H](CCCCNC(=O)COCCOCCNC(=O)COCCOCCNC(=O)CC[C@H](NC(=O)CCCCCCCCCCCCC(=O)O)C(=O)O)C(=O)N[C@@H](Cc1ccccc1)C(=O)N[C@H](C(=O)N[C@@H](CCCCNC(=O)COCCOCCNC(=O)COCCOCCNC(=O)CC[C@H](NC(=O)CCCCCCCCCCCCC(=O)O)C(=O)O)C(=O)N[C@@](C)(Cc1ccc(O)cc1)C(=O)N[C@@H](CC(C)C)C(=O)N[C@H](C(=O)N[C@@H](CCC(=O)O)C(=O)NCC(=O)NCC(=O)N1CCC[C@H]1C(=O)N[C@@H](CO)C(=O)N[C@@H](CO)C(=O)NCC(=O)N[C@@H](C)C(=O)N1CCC[C@H]1C(=O)N1CCC[C@H]1C(=O)N1CCC[C@H]1C(=O)N[C@@H](CO)C(N)=O)[C@@H](C)CC)[C@@H](C)CC` [Example 69], the EC50 (hGCGR; [1]) is reported as > 9950 nM, the EC50 (hGCGR; [2]) is reported as > 9950 nM and the EC50 (hGLP-1R; [3]) is reported as 18.9 nM. It also gave an Emax (hGIPR; [4]) of 86.8%, an Emax (hGIPR; [5]) of 99 ± 2.43% and an EC50 (hGIPR; [6]) of 2.32 nM. The EC50 (hGIPR; [7]) was 0.0265 nM.

In the case of `CC[C@H](C)[C@H](NC(=O)[C@H](CC(C)C)NC(=O)[C@](C)(Cc1ccc(O)cc1)NC(=O)[C@@H](CCC(=O)O)NC(=O)[C@@H](NC(=O)[C@H](Cc1ccccc1)NC(=O)[C@H](CCC(=O)O)NC(=O)C(C)(C)NC(=O)[C@H](CCC(N)=O)NC(=O)[C@H](C)NC(=O)[C@H](CCCCNC(=O)COCCOCCNC(=O)COCCOCCNC(=O)CCCCCCCCCOc1ccc(C(=O)O)cc1)NC(=O)[C@H](CCCN)NC(=O)[C@H](CC(=O)O)NC(=O)[C@H](CC(C)C)NC(=O)[C@](C)(CC(C)C)NC(=O)[C@@H](NC(=O)[C@H](CO)NC(=O)[C@H](Cc1ccncc1)NC(=O)[C@H](CC(=O)O)NC(=O)[C@H](CO)NC(=O)[C@@H](NC(=O)[C@](C)(Cc1ccccc1F)NC(=O)[C@@H](NC(=O)CNC(=O)[C@H](CCC(=O)O)NC(=O)C(C)(C)NC(=O)[C@@H](N)Cc1ccc(O)cc1)[C@@H](C)O)[C@@H](C)O)[C@@H](C)CC)[C@@H](C)CC)C(=O)N[C@@H](CCC(=O)O)C(=O)NCC(=O)NCC(=O)N[C@@H](CCCCNC(=O)COCCOCCNC(=O)COCCOCCNC(=O)CCCCCCCCCOc1ccc(C(=O)O)cc1)C(=O)N[C@@H](CO)C(=O)N[C@@H](CO)C(=O)NCC(=O)N[C@@H](C)C(=O)N1CCC[C@H]1C(=O)N1CCC[C@H]1C(=O)N1CCC[C@H]1C(=O)N[C@@H](CO)C(N)=O` [Example 10], the EC50 (hGCGR; [1]) is reported as > 9950 nM, the EC50 (hGCGR; [2]) is reported as > 9950 nM and the EC50 (hGLP-1R; [3]) is reported as 4.38 nM. For the same molecule, the Emax (hGIPR; [4]) was 84.9 ± 1.84%, the Emax (hGIPR; [5]) was 97.9 ± 1.99% and the EC50 (hGIPR; [6]) was 0.121 nM. It also gave an EC50 (hGIPR; [7]) of 0.0106 nM.
